In the supplement of paper PMC10307832:

How the values were obtained:
Experiment in all cases: relative viability (nuclei count vs DMSO), 5 days (fraction); higher = more cells survive
IPA-3 + Trametinib = compound: C1=CC=C2C(=C1)C=CC(=C2SSC3=C(C=CC4=CC=CC=C43)O)O [IPA-3] + CC(=O)Nc1cccc(-n2c(=O)n(C3CC3)c(=O)c3c(Nc4ccc(I)cc4F)n(C)c(=O)c(C)c32)c1 [Trametinib] (partner 0.02 µM)
Method in brief: (§1)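 One day after seeding in 1536-well plates, lung cancer cell lines were dosed by pin tool. Dosing was either single-drug or a fixed anchor-drug dose plus five library-drug doses (not always all listed) in √10 steps. After 5 days, nuclei were stained in one fix-and-stain step and counted on 4× images, and relative viability is the nuclei count of treated wells over that of vehicle wells, given as the median of duplicate plates.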

IPA-3 + Pemetrexed = compound: C1=CC=C2C(=C1)C=CC(=C2SSC3=C(C=CC4=CC=CC=C43)O)O [IPA-3] + Nc1nc2[nH]cc(CCc3ccc(C(=O)N[C@@H](CCC(=O)O)C(=O)O)cc3)c2c(=O)[nH]1 [Pemetrexed] (partner 0.2 µM)
Method in brief: as §1

Doramapimod + Luminespib = compound: Cc1ccc(-n2nc(C(C)(C)C)cc2NC(=O)Nc2ccc(OCCN3CCOCC3)c3ccccc23)cc1 [Doramapimod] + CCNC(=O)c1noc(-c2cc(C(C)C)c(O)cc2O)c1-c1ccc(CN2CCOCC2)cc1 [Luminespib] (partner 0.01 µM)
Method in brief: as §1

Doramapimod + AZD7762 = compound: Cc1ccc(-n2nc(C(C)(C)C)cc2NC(=O)Nc2ccc(OCCN3CCOCC3)c3ccccc23)cc1 [Doramapimod] + NC(=O)Nc1cc(-c2cccc(F)c2)sc1C(=O)N[C@H]1CCCNC1 [AZD7762] (partner 0.2 µM)
Method in brief: as §1

Cell Line	relative viability (IPA-3 + Trametinib; first compound 0.2 µM)	relative viability (IPA-3 + Trametinib; first compound 0.6325 µM)	relative viability (IPA-3 + Trametinib; first compound 2 µM)	relative viability (IPA-3 + Trametinib; first compound 6.325 µM)	relative viability (IPA-3 + Trametinib; first compound 20 µM)	relative viability (IPA-3 + Pemetrexed; first compound 0.2 µM)	relative viability (IPA-3 + Pemetrexed; first compound 0.6325 µM)	relative viability (IPA-3 + Pemetrexed; first compound 2 µM)	relative viability (IPA-3 + Pemetrexed; first compound 6.325 µM)	relative viability (IPA-3 + Pemetrexed; first compound 20 µM)	relative viability (Doramapimod + Luminespib; first compound 0.02 µM)	relative viability (Doramapimod + Luminespib; first compound 0.06325 µM)	relative viability (Doramapimod + Luminespib; first compound 0.2 µM)	relative viability (Doramapimod + Luminespib; first compound 0.6325 µM)	relative viability (Doramapimod + Luminespib; first compound 2 µM)	relative viability (Doramapimod + AZD7762; first compound 0.02 µM)	relative viability (Doramapimod + AZD7762; first compound 0.06325 µM)	relative viability (Doramapimod + AZD7762; first compound 0.2 µM)	relative viability (Doramapimod + AZD7762; first compound 0.6325 µM)	relative viability (Doramapimod + AZD7762; first compound 2 µM)
NCI-H522	0.828	0.792	0.822	0.875	0.711	1.02	0.772	0.855	1.08	1.13	0.929	1.07	1	1.12	1.09	0.879	0.744	0.708	0.736	0.9
NCI-H1944	0.436	0.433	0.401	0.42	0.415	0.687	0.549	0.551	0.721	0.577	0.626	0.777	0.718	0.769	0.655	0.468	0.62	0.341	0.647	0.312
NCI-H727	0.373	0.409	0.402	0.344	0.417						0.363	0.312	0.342	0.306	0.225	0.605	0.576	0.642	0.487	0.528
NCI-H1650	0.996	0.558	0.579	0.647	0.545	0.346	0.39	0.398	0.364	0.466	0.186	0.171	0.195	0.176	0.209					
HCC-827	0.553	0.518	0.585	0.597	0.675	0.264	0.261	0.241	0.254	0.254	0.569	0.611	0.751	0.831	0.625	0.281	0.3	0.195	0.588	0.116
HCC-366	0.487	0.301	0.374	0.336	0.283	0.192	0.147	0.21	0.169	0.178						0.387	0.271	0.33	0.34	0.213
HARA	0.884	0.899	0.63	0.591	1.02	0.298	0.227	0.249	0.229	0.24	0.779	0.688	0.873		0.576	0.341	0.235	0.397	0.536	0.213
NCI-H322M	0.459	0.481	0.567	0.453	0.581	0.594	0.624	0.681	0.669	0.573	0.661	0.914	0.831	0.946	1.02	0.564	0.593	0.52	0.484	0.687
LXF-289	0.714	0.646	0.668	0.662	0.762	0.949	0.786	0.963	0.996	0.925	0.644	0.757	0.607	0.732	0.616	1.07	1.16	1.14	1.1	1.12
